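Following 48 hours of exposure in 96-well plates, responses at five concentrations were used to interpolate endpoints linearly. At the GI50, growth is halved. The concentration for full growth arrest is given as TGI.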

Holding throughout (test): NCI tumour cell line growth inhibition, 48 h
In assay [1] the test system is NCI-H226 lung.
In assay [2] the test system is HCC-2998 colon.
Assay [3] has as its system HCT-15 colon.
In assay [4] the test system is RXF 393 renal.
Assay [5] has as its system SK-MEL-2 melanoma.
Assay [6] concerns TK-10 renal.
In assay [7] the test system is IGROV1 ovarian.
The subject of assay [8] is UACC-257 melanoma.
In assay [9] the test system is M14 melanoma.
The test system of assay [10] is CCRF-CEM leukemia.

On to `CCC(C)[C@H](NC(=O)NC(=O)NC(=O)CI)C(=O)OC` (stereo partly drawn), for which the GI50 in assay [1] is 3.84 µM; in assay [2], 13.7 µM; in assay [3], 1.76 µM; in assay [4], 4.51 µM; in [5] it was 14.2 µM; in assay [6], 2.96 µM. The GI50 in assay [7] is 3.47 µM; in [8], 12.6 µM; in assay [9], 2.47 µM. Further, the TGI came out at 19.1 µM in assay [1]; 26.9 µM in assay [2]; 3.42 µM in [3]; 15.2 µM in assay [4]; 27.3 µM in [5]; 11.8 µM in assay [6]. Further, the figures for the TGI in assay [7], in assay [8] and in [9] were 12.1 µM, 25.8 µM and 6.8 µM, respectively.

With `COc1ccc2c(c1)[n+]([O-])c(-c1ccc(Br)cc1)c(N)[n+]2[O-]`, the TGI in [1], in [4], in [10], in assay [5], in assay [7] and in assay [8] was greater than 100 µM throughout.

As for `COc1ccc(CNC(C)C(=O)O)cc1` (stereo not drawn), the TGI is greater than 100 µM in assay [1]; greater than 100 µM in assay [3]; greater than 100 µM in [4]; 65.5 µM in [10]; greater than 100 µM in assay [5]; greater than 100 µM in assay [6]. Moreover, the TGI in [7], in [8] and in [9] was greater than 100 µM in each case.

Take `C[C@]12CCC[C@H](O)[C@H]1C[C@H](CO)CC2`: the TGI in [1], in [2], in [3], in assay [10], in assay [5] and in assay [6] was greater than 100 µM throughout. Also, the TGI in [7], in [8] and in [9] was greater than 100 µM each time.

`COc1ccc2c(Cc3c4ccccc4cc4ccccc34)cncc2c1O`: the TGI was 11.7 µM in [1]; greater than 22 µM in assay [3]; greater than 21.6 µM in assay [4]; 3.04 µM in [10]; 17.5 µM in [5]; 17.6 µM in assay [6]. Besides, the TGI in [7] amounted to 11 µM; in [8], 14 µM; in assay [9], 15.3 µM.

On to `c1ccc(CN2CCC3(CC2)SSC2(CCN(Cc4ccccc4)CC2)SS3)cc1`, for which the TGI in [1], in [2], in [3], in [4], in [5] and in assay [6] was greater than 100 µM in each case. The TGI in assay [7], in assay [8] and in [9] was greater than 100 µM each time.

In the case of `CC(C)=CCC1=C(OCC(=O)O)C(=O)c2ccccc2C1=O`, the TGI in assay [1] is 90.1 µM; in assay [3], greater than 100 µM; in assay [4], 81.1 µM; in assay [10] it was 54.7 µM; in [5], 84.2 µM; in assay [6], greater than 100 µM. Also, the TGI in assay [7] was greater than 100 µM; in assay [8], 76 µM; in assay [9], greater than 100 µM.

As to `N.N.O=P([O-])([O-])CN(CCN(CP(=O)([O-])[O-])CP(=O)([O-])[O-])CP(=O)([O-])[O-].[Pt+2]`, the GI50 in [1], in [2], in assay [4], in assay [5], in assay [6] and in assay [7] was greater than 100 µM each time. Besides, the GI50 in assay [8] and in assay [9] was greater than 100 µM in each case. Besides, the TGI in assay [1], in assay [2], in assay [4], in assay [5], in [6] and in assay [7] was greater than 100 µM each time. Also, the TGI in assay [8] and in assay [9] was greater than 100 µM in each case.

With `O=[N+]([O-])c1ccc(Sc2nc(Cl)nc(NC3CCCC3)n2)cc1`, the GI50 in [1] was greater than 10 µM; in assay [2] it was greater than 10 µM; in assay [3] it was greater than 10 µM; in assay [4] it was 3.34 µM; in [5], greater than 10 µM; in [6], greater than 10 µM. For the same molecule, the GI50 in [7] is 2.84 µM; in assay [9] it was greater than 10 µM. For the same molecule, the TGI in assay [1], in assay [2], in [3], in assay [4], in [5] and in [6] was greater than 10 µM in each case. Further, the TGI in assay [7] and in assay [9] was greater than 10 µM in each case.

On to `COC(=O)NC(=Nc1ccc(Oc2ccccc2)cc1NC=O)NC(=O)OC`, for which the TGI in assay [1] was 9.4 µM; in assay [2], 5.27 µM; in assay [10] it was greater than 100 µM; in [6], greater than 100 µM; in assay [7], greater than 100 µM; in assay [8], greater than 100 µM. In assay [9], this molecule displayed a TGI greater than 100 µM.

Turning to `COc1ccc2c(c1)C1OCCNC1CC2` (stereo not drawn), the TGI in assay [1], in [3], in [4], in [10], in assay [5] and in [6] was greater than 100 µM each time. In addition, the TGI in [7], in [8] and in [9] was greater than 100 µM each time.

As for `COC(=O)N/N=C(\C(=O)Nc1cccc([N+](=O)[O-])c1)c1nc2ccc([N+](=O)[O-])cc2[nH]c1=O`, the TGI in assay [1], in [2], in [4], in assay [10], in [6] and in assay [7] was greater than 100 µM throughout. In addition, the TGI in assay [8] and in assay [9] was greater than 100 µM in each case.

For the molecule `O=C(CC1(O)C(=O)Nc2ccccc21)c1ccc(F)cc1` (stereo not drawn), the TGI in assay [1], in assay [3], in [4], in assay [5], in assay [6] and in [7] was greater than 100 µM each time. The TGI in assay [8] and in assay [9] was greater than 100 µM each time.

(Values after PubChem BioAssay (NCI).)
